Measurements as given in patent US6946259B2, “Compositions and methods for treating cells having double minute DNA” (The Salk Institute For Biological Studies, priority 1998, dated 2005).
Entries after “also recorded” stand apart in the source; their conditions may differ. Counter-ions that a name gives are not always drawn.

Tests used:
COLO 320DM cells [1] = assay: Quantification of c-myc+ (DM-containing) micronuclei in COLO 320DM cells by FISH; format: cell-based, human; conditions: for micronucleation (frequency of c-myc+ micronuclei): COLO 320DM cells treated for 3 days; for micronucleation efficiency at concentrations that severely inhibited S-phase: COLO 320DM cells, 3 days, high drug concentrations
Method: (§1) FIGS. 3A and 3B show the effects of various drugs on induction of micronuclei and cell cycle distribution. COLO 320DM cells were treated for 3 days with inhibitors of DNA replication (aphidicolin (“APH”); deferoxamine (“Def”), guanazole (“Gua”); hydroxurea (“HU”); and PALA), repair (coumarin (“Cou”); nicotinamide (“NA”)) or the membrane active agent DMSO at the concentrations indicated. In FIG. 3A, the treated cells were fixed with methanol/acetic acid and hybridized with c-myc cosmid probe. The numbers of micronuclei that were stained brightly with c-myc probe were scored and expressed as “frequency of c-myc^+ micronuclei (%)” relative to the number of interphase nuclei scored (more than 1000 for each point). In FIG. 3B, the cells were pulse-labeled with BrdU (for 30 min) at the end of the drug treatment, and analyzed by flow cytometry as described below to determine the fraction of cells in G1, S, and G2/M.
Micronuclei containing DM sequences in COLO 320DM cells (FIGS. 2 and 3) were detected by preparing chromosome spreads using standard hypotonic swelling conditions (Lawce and Brown (1991)), followed by hybridization with a biotinylated c-myc cosmid probe as described previously (Shimizu, et al. (1996)). Total micronuclei (FIG. 3) were determined by staining chromosome spreads with DAPI (Sigma; 1 μg/ml in VectaShield, Vector Inc.). The adherent cells (WS1, RPE-h and their derivatives) were grown on cover slips, fixed with cold acetone (−20° C. for 5 min) followed by cold methanol (−20° C. for 5 min), re-hydrated with PBS and stained with DAPI (1 μg/ml in VectaShield). The numbers of total or DM-enriched micronuclei were scored using 60× or 100× objectives and Zeiss fluorescence microscope equipped with appropriate epifluorescence filters. The results are expressed as “Frequency of micronuclei (%)” relative to the number of interphase nuclei scored (at least 1000 for each point).

COLO 320DM cells [2] = assay: Cell cycle distribution of COLO 320DM cells by BrdU/PI flow cytometry; format: cell-based, human; conditions: COLO 320DM cells treated for 3 days
Method: as §1
Cell cycle distribution was analyzed using flow cytometry as described previously (Yin, et al. (1992) and Di Leonardo, et al. (1994)). Cells treated with the indicated concentrations of drugs for the indicated times were labeled with 10 μM BrdU for 30 min. […] Samples were analyzed using a Becton Dickinson FACScan. […] Data was analyzed using Sun Display as described previously (Yin, et al. (1992) and Di Leonardo, et al. (1994)).

[3] = tested on: human and rodent cell lines; conditions: cited from earlier work
COLO 320DM cells [4] = assay: Localization of DMs in interphase nuclei by FISH and confocal microscopy; format: cell-based, human; conditions: 100 μM HU for 3 days
Method: Preparation of probe from purified micronuclei was as described (Shimizu, et al. (1996)), except that DNA in the purified micronuclei was directly used for biotin-labeling by using BioPrime DNA Labeling System (Life Technologies Inc. Gaithersburg, Md.). FISH using standard methanol/acetic acid-fixed nuclei was performed as described previously (Shimizu, et al. (1996)). Assessments of DM localization by confocal microscopy required the following procedure to preserve the spherical shape of the nuclei. This protocol, based on that developed for human lymphocytes (Ferguson and Ward (1992) and Vourc'h, et al. (1993)), could not be applied directly to COLO 320DM due to severe nuclear aggregation. The modified procedure involves pelleting 10 ml of COLO 320DM cells by centrifugation at 260×g for 5 min, followed by complete removal of the supernatant. […] The acquired digital images were expressed as pseudocolors, and merged using Adobe Photoshop (Adobe Systems Inc., Mountain View, Calif.).
The locations of DMs in confocal nuclear sections were determined by measuring the distance from each of the hybridized signals to the center of the nucleus using the corresponding nuclear diameter as a unit length. […] The distances from this dot to the center of the nucleus and the nuclear diameter were determined. […] At the same time, the intensity of each signal was measured using an arbitrary unit scale. […]

COLO 320DM cells [5] = assay: DM content per cell by competitive PCR amplification; format: cell-based, human; conditions: HU treatment, data not shown
[6] = tested on: WS1 human diploid fibroblasts; assay: Frequency of micronuclei (DAPI) in WS1 normal diploid fibroblasts; format: cell-based; conditions: WS1 cells, drug for 3 days
Method: (§2) Wild type (wt) WS1 human diploid fibroblasts, or transformants expressing the neomycin resistance gene (neo) or both neo and the human papilloma virus E6 protein (E6) were generated by retroviral transduction. These cells were cultured in the absence or the presence of HU or PALA at the indicated concentrations for 3 days. […] The number of micronuclei were scored and expressed as the frequency of micronuclei (%) relative to the number of interphase nuclei scored (more than 1000 for each point). In FIG. 7B, cell cycle effects of these drugs were examined as in FIG. 2B. […] In FIG. 7C, progression through S-phase or M-phase was monitored by the incorporation of [^3H]thymidine (closed symbols) or the fraction of mitotic cells determined by microscopic detection of metaphase figures (open symbols). In FIG. 7D, the cells on the cover slips were fixed, stained with DAPI, and the frequencies of micronuclei relative to the number of interphase nuclei were scored. More than 500 nuclei were counted for each point and the results are expressed as mean±S.D for WS1 neo and WS1-E6 cells (3 independent determinations for each strain; the error bars for WS1 neo data points were smaller than the sizes of the symbols). Nuclear budding frequencies were determined on the same slides as used to determine micronucleation index (more than 1000 nuclei for each point). […]

WS1 E6 cells [7] = assay: Frequency of micronuclei (DAPI) in WS1 E6 fibroblasts; format: cell-based, human; conditions: WS1 fibroblasts expressing E6, drug for 3 days
Method: as §2

[8] = tested on: WS1 human diploid fibroblasts; assay: Cell cycle distribution of WS1 fibroblasts by flow cytometry; format: cell-based; conditions: WS1 cells, drug for 3 days
Method: as §2

WS1 E6 cells [9] = assay: Cell cycle distribution of WS1 E6 fibroblasts by flow cytometry; format: cell-based, human; conditions: WS1 fibroblasts expressing E6, drug for 3 days
Method: as §2

COLO 320DM cells [10] = assay: Apoptosis in COLO 320DM cells (TUNEL assay); format: cell-based, human; conditions: COLO 320DM cultures, prolonged incubation
Method: TUNEL assay was done according to a previously published procedure (Gavrieli, et al. (1992)) and modified as described below. In brief, COLO 320DM cells were fixed in 2% PFA (10 min at room temperature), and centrifuged onto a glass slide using a cytospin apparatus. The cells were further fixed in cold methanol (−20° C., 5 min) followed by cold acetone (−20° C., 5 min). The slides were rehydrated in PBS, then equilibrated in reaction buffer (200 mM sodium cacodylate, 1 mM MgCl2, 1 mM β-mercaptoethanol, pH 7.2) for 15 min at room temperature. The end-labeling reaction was done by incubating the slides with the reaction buffer containing 10 μM biotin-dUTP (Boehringer Mannheim GmbH, Germany), and 0.3 units/μl of terminal deoxynucleotidyl transferase (Toyobo Co., Osaka, Japan), for 60 min at 37° C. The slides were washed extensively, blocked with 20% FCS, and the incorporated biotin was detected using FITC conjugated streptavidin as in the protocol for FISH (see below). The slides were treated with RNAse A (100 μg/ml 37° C., for 20 min), counterstained with PI, and observed under the conditions used for FISH.

O=c1ccc2ccccc2o1 [Coumarin, 1,2-benzopyrone]
micronucleation (frequency of c-myc+ micronuclei) (COLO 320DM cells [1]): no effect on micronucleation

C[S+](C)[O-] [DMSO]
micronucleation (frequency of c-myc+ micronuclei) (COLO 320DM cells [1]): increased micronucleation
cell cycle distribution (fraction of cells in G1, S, G2/M) (COLO 320DM cells [2]): without lengthening S-phase
DM copy number ([3]; some tumor cell lines): reduce DM copy number

NC(=O)NO [HU, hydroxyurea]
micronucleation (frequency of c-myc+ micronuclei) (COLO 320DM cells [1]): substantial increases in micronucleation
nuclear position of DMs (peripheral localization) (COLO 320DM cells [4]): preferentially depleted DMs from the nuclear periphery; also recorded: Very few peripheral DMs were detected
reduction of DM content per cell (COLO 320DM cells [5]): approximately 3 fold
micronucleation rate [6]: not increased
micronucleation rate (WS1 E6 cells [7]): substantial further increase in micronucleation rate
cell cycle effect [8]: did not significantly affect the percentage of WS1 cells in S-phase
number of cells in S-phase (WS1 E6 cells [9]): significant increase in the number of cells in S-phase
apoptosis (COLO 320DM cells [10]): apoptotic cells did arise
loss rate of DMs ([3]; human and rodent cell lines): significantly increase the loss rate of DMs

O=C(O)C[C@H](NC(=O)CP(=O)(O)O)C(=O)O [PALA, N-phosphonacetyl-L-aspartate]
micronucleation (frequency of c-myc+ micronuclei) (COLO 320DM cells [1]): substantial increases in micronucleation; also recorded: induces S-phase micronucleation
micronucleation efficiency at concentrations that severely inhibited S-phase (COLO 320DM cells [1]): sharp decrease in micronucleation efficiency
micronucleation rate [6]: not increased
micronucleation rate (WS1 E6 cells [7]): substantial further increase in micronucleation rate
cell cycle effect [8]: induced a G1 cell cycle arrest
number of cells in S-phase (WS1 E6 cells [9]): significant increase in the number of cells in S-phase

C[C@@]1(CO)[C@H](O)CC[C@@]2(C)[C@H]1CC[C@H]1C[C@@H]3C[C@@]12CC[C@]3(O)CO [aphidicolin, Aphidicolin]
micronucleation (frequency of c-myc+ micronuclei) (COLO 320DM cells [1]): substantial increases in micronucleation

CC(=O)N(O)CCCCCNC(=O)CCC(=O)N(O)CCCCCNC(=O)CCC(=O)N(O)CCCCCN [deferoxamine, deferoxamine mesylate]
micronucleation (frequency of c-myc+ micronuclei) (COLO 320DM cells [1]): substantial increases in micronucleation
micronucleation efficiency at concentrations that severely inhibited S-phase (COLO 320DM cells [1]): sharp decrease in micronucleation efficiency

Nc1n[nH]c(N)n1 [guanazole, 3,5-diamino-1,2,4-triazole]
micronucleation (frequency of c-myc+ micronuclei) (COLO 320DM cells [1]): substantial increases in micronucleation

NC(=O)c1cccnc1 [nicotinamide]
micronucleation (frequency of c-myc+ micronuclei) (COLO 320DM cells [1]): small increase
cell cycle distribution (fraction of cells in G1, S, G2/M) (COLO 320DM cells [2]): significant increase in the G2 fraction
